One data set relates to HIV-1IIIB. Kind of data set: HIV-1 cytoprotection (CPE reduction) antiviral assay. Format: cell-based. The note with it: for inhibition at 10 µM: read-out: CPE reduction %. As for the experimental part: (§1) The antiviral activity of newly synthesized analogues of chemotype 7 was evaluated against HIV-1IIIB in CEM-SS cells using an assay based on viral cytopathic effect (CPE). In this assay, the reduction of CPE was used to indicate the antiviral activity of a compound.
Briefly virus and cells were mixed in the presence of test compound and incubated for 6 days. […] Each assay plate contained cell control wells (cells only), virus control wells (cells plus virus), compound toxicity control wells (cells plus compound only), compound colorimetric control wells (compound only) as well as experimental wells (compound plus cells plus virus). Cytoprotection and compound cytotoxicity were assessed by MTS (CellTiter® 96 Reagent, Promega, Madison Wis.) and the EC50 (concentration inhibiting virus replication by 50%), CC50 (concentration resulting in 50% cell death) and a calculated TI (therapeutic index CC50/EC50) were provided. Each assay included AZT as a positive control.

A further data set has as its system CEM-SS cells. Kind of data set: Compound cytotoxicity (MTS) in the HIV cytoprotection assay. In kind it is cell-based. The note with it: for Cell viability %: 10 μM, CEM-SS cells; for CC50: Concentration resulting in 50% cell death. As for the experimental part: as §1
Briefly virus and cells were mixed in the presence of test compound and incubated for 6 days. […] Each assay plate contained cell control wells (cells only), virus control wells (cells plus virus), compound toxicity control wells (cells plus compound only), compound colorimetric control wells (compound only) as well as experimental wells (compound plus cells plus virus). […] Each assay included AZT as a positive control.

A further data set deals with T1, HIV-1 integrase (Human immunodeficiency virus type 1 group M subtype B, UniProt P04585).
T1 construct: HIV integrase was expressed and purified as previously reported; made in house; host or cells: Escherichia coli
Kind of data set: HIV-1 integrase strand transfer (INST) assay. Format: biochemical. As for the experimental part:
HIV integrase was expressed and purified as previously reported.^43 Inhibition assays were performed using a modified protocol of a reported method.^43 Briefly, 2.1 μL of compound suspended in DMSO was placed in duplicate into a Black 96 well non-binding plate (coming 3991). Compounds were plated in duplicate to a final concentration of 0.13-100 μM. To each well of the plate 186.9 μL of reaction mixture without DNA substrate was added (10 mM HEPES pH 7.5, 10% glycerol w/v, 10 mM MnCl2, 1 mM DTT, 1 μM integrase). The enzyme was incubated with inhibitor for 10 min at 25° C. after which the reaction was initiated by the addition of 21 μL of 500 nM oligo (5′ biotin […] annealed with […] 3′ Cy5). Reactions were incubated at 37° C. for 30 min and then quenched by the addition of 5.2 μL 500 mM EDTA. Each reaction was moved (200 μL) to a MultiScreen HTS PCR plate (Millipore MSSLBPC10) containing 20 μL streptavidin agarose beads (Life Technologies S951) and incubated with shaking for 30 min. A vacuum manifold was used to remove the reaction mixture and the beads were similarly washed 3 times with wash buffer (0.05% SDS, 1 mM EDTA in PBS). The plates were further washed 3 times with 200 μL 50 mM NaOH to denature DNA not covalently linked to the biotin modification. For each denaturation step the plate was incubated with shaking at 25° C. for 5 min and the NaOH was removed by centrifugation at 1000 g for 1 min. The reaction products were eluted from the beads by the addition of 150 μL formamide. The plate was incubated at 25° C. for 10 min and read directly at 635/675 in a SpectraMax i3 plate reader (Molecular Devices). Expression and purification of the recombinant IN in Escherichia coli were performed as previously reported^39, 44 with addition of 10% glycerol to all buffers. Preparation of oligonucleotide substrates has been described.^45 Integrase reactions were performed in 10 μL with 400 nM of recombinant IN, 20 nM of 5′-end [^32P]-labeled oligonucleotide substrate and inhibitors at various concentrations. Solutions of 10% DMSO without inhibitors were used as controls. Reactions were incubated at 37° C. (60 minutes) in buffer containing 50 mM MOPS, pH 7.2, 7.5 mM MgCl2, and 14.3 mM 2-mercaptoethanol. Reactions were stopped by addition of 10 μL of loading dye (10 mM EDTA, 98% deionized formamide, 0.025% xylene cyanol and 0.025% bromophenol blue). Reactions were then subjected to electrophoresis in 20% polyacrylamide-7 M urea gels. Gels were dried and reaction products were visualized and quantitated with a Typhoon 8600 (GE Healthcare, Little Chalfont, Buckinghamshire, UK). Densitometric analyses were performed using ImageQuant from Molecular Dynamics Inc. The concentrations at which enzyme activity was reduced by 50% (IC50) were determined using “Prism” software (GraphPad Software, San Diego, Calif.) for nonlinear regression to fit dose-response data to logistic curve models.

Setting [1] is: Human immunodeficiency virus 1, CEM-SS.
Where [2] appears, read: Human immunodeficiency virus 1, 10 μM, HIV-1IIIB in CEM-SS cells.

These results are taken from patent publication US10117871B2, “3-hydroxypyrimidine-2,4-dione-5-carboxamides as potent inhibitors of HIV” (Regents of the University of Minnesota, priority 2015, dated 2018).

Where two headings read alike, the source gives them in different places.

With `O=C(NCc1ccccc1)c1c(Nc2ccccc2)[nH]c(=O)n(O)c1=O` [Compound 7-i, N-Benzyl-1-(hydroxy)-1,2,3,6-tetrahydro-2,6-dioxo-4-(phenylamino)pyrimidine-5-carboxamide], the inhibition at 10 µM in the data set with HIV-1IIIB (setting [1]) was found to be 0%. Also, the Cell viability % with CEM-SS cells worked out at 21%.

Turning to `O=C(NCc1ccccc1)c1c(Nc2ccc(-c3ccccc3)cc2)[nH]c(=O)n(O)c1=O` [Compound 7-ii, N-Benzyl-1-(hydroxy)-1,2,3,6-tetrahydro-2,6-dioxo-4-(biphenylamino)pyrimidine-5-carboxamide], the inhibition at 10 µM in the data set on HIV-1IIIB (setting [1]) was determined as 0%. The same compound registered a Cell viability % in the data set on CEM-SS cells of 13%.

A word on the IC50: it is the midpoint of a concentration-inhibition curve. `O=C(NCc1cccc(F)c1)c1c(Nc2ccc(-c3ccccc3)cc2)[nH]c(=O)n(O)c1=O` [Compound 7-iii, N-(3-Fluorobenzyl)-1-(hydroxy)-1,2,3,6-tetrahydro-2,6-dioxo-4-(biphenylamino)pyrimidine-5-carboxamide]: in the data set with HIV-1IIIB (setting [2]), the inhibition at 10 µM came out at 0%. The Cell viability % in the data set on CEM-SS cells came out at 8.7%. The IC50 on HIV-1 integrase (read-out: INST IC50) is > 100 µM.

Regarding `O=C(NCc1ccc(F)cc1)c1c(Nc2ccc(-c3ccccc3)cc2)[nH]c(=O)n(O)c1=O` [Compound 7-iv, N-(4-Fluorobenzyl)-1-(hydroxy)-1,2,3,6-tetrahydro-2,6-dioxo-4-(biphenylamino)pyrimidine-5-carboxamide], the inhibition at 10 µM in the data set with HIV-1IIIB (setting [2]) came out at 0%. Further, in the data set with CEM-SS cells, the Cell viability % is recorded as 9.1%. Also, the IC50 on HIV-1 integrase (read-out: INST IC50) is > 100 µM.

Turning to `O=C(NCc1ccccc1)c1c(NC2CC2)[nH]c(=O)n(O)c1=O` [Compound 7-ix, N-Benzyl-1-(hydroxy)-4-(cyclopropylamino)-1,2,3,6-tetrahydro-2,6-dioxopyrimidine-5-carboxamide], in the data set with HIV-1IIIB (setting [2]), the inhibition at 10 µM came out at 98%. This compound came in with a Cell viability % with CEM-SS cells of 90%. Besides, the IC50 at HIV-1 integrase (read-out: INST IC50) amounted to 0.209 ± 0.077 µM.

Usually EC50 stands for the concentration needed to bring the measured effect to its halfway point. Broadly, the CC50 is the concentration giving 50% cytotoxicity. As for `CNc1[nH]c(=O)n(O)c(=O)c1C(=O)NCc1ccccc1` [Compound 7-v, N-Benzyl-1-(hydroxy)-1,2,3,6-tetrahydro-4-(methylamino)-2,6 dioxopyrimidine-5-carboxamide], the EC50 in the data set on HIV-1IIIB (Human immunodeficiency virus 1) stood at 0.83 µM. Further, the inhibition at 10 µM in the data set on HIV-1IIIB (setting [2]) stood at 100%. Moreover, in the data set with CEM-SS cells, the Cell viability % turned out to be 98% and the cytotoxic concentration (CC50) was found to be 58 µM. For the same compound, the IC50 at HIV-1 integrase (read-out: INST IC50) amounted to 0.08 ± 0.007 µM.

For the compound `CCNc1[nH]c(=O)n(O)c(=O)c1C(=O)NCc1ccccc1` [Compound 7-vi, N-Benzyl-1-(hydroxy)-4-(ethylamino)-1,2,3,6-tetrahydro-2,6-dioxopyrimidine-5-carboxamide], the EC50 was 0.061 µM in the data set on HIV-1IIIB (Human immunodeficiency virus 1) and 0.015 to 0.061 µM with HIV-1IIIB (Human immunodeficiency virus 1, summary of Table 2, read-out: EC50). In addition, the inhibition at 10 µM with HIV-1IIIB (setting [1]) was 100%. This compound also came in with a Cell viability % with CEM-SS cells of 100%. Half-maximal cytotoxicity in the data set with CEM-SS cells (CC50) was put at 23 µM. In addition, the results for the IC50 on HIV-1 integrase (read-out: IC50 (ST)) and on HIV-1 integrase (read-out: INST IC50) were 0.021 to 0.077 µM and 0.033 ± 0.004 µM, respectively.

`CCCNc1[nH]c(=O)n(O)c(=O)c1C(=O)NCc1ccccc1` [Compound 7-vii, N-Benzyl-1-(hydroxy)-1,2,3,6-tetrahydro-2,6-dioxo-4-(propylamino)pyrimidine-5-carboxamide]: in the data set on HIV-1IIIB (setting [2]), the inhibition at 10 µM was determined as 100%. The compound further showed a Cell viability % with CEM-SS cells of 97%. In addition, the IC50 on HIV-1 integrase (read-out: INST IC50) was found to be 0.066 ± 0.016 µM.

Consider `CC(C)Nc1[nH]c(=O)n(O)c(=O)c1C(=O)NCc1ccccc1` [Compound 7-viii, N-Benzyl-1-(hydroxy)-1,2,3,6-tetrahydro-4-(isopropylamino)-2,6-dioxopyrimidine-5-carboxamide], for which the inhibition at 10 µM with HIV-1IIIB (setting [2]) amounted to 0%. Also, in the data set on HIV-1IIIB (single concentration 10 μM, CPE assay), the “antiviral activity, in words” value is “inactive”. In addition, the Cell viability % in the data set with CEM-SS cells is 17%. The “cytotoxicity, in words” value in the data set with CEM-SS cells (single concentration 10 μM) is given as “cytotoxic”. Further, the half-inhibitory concentration (IC50) on HIV-1 integrase (read-out: INST IC50) amounted to 0.15 ± 0.034 µM.

`CC(C)(C)Nc1[nH]c(=O)n(O)c(=O)c1C(=O)NCc1ccccc1` [Compound 7-x, 4-(tert-Butylamino)-N-benzyl-1-(hydroxy)-1,2,3,6-tetrahydro-2,6-dioxopyrimidine-5-carboxamide]: the inhibition at 10 µM with HIV-1IIIB (setting [2]) came out at 98%. In the data set with CEM-SS cells, this compound had a Cell viability % of 91%. Moreover, on HIV-1 integrase (read-out: INST IC50), the IC50 was 0.081 ± 0.015 µM.

As to `Nc1[nH]c(=O)n(O)c(=O)c1C(=O)NCc1ccccc1` [Compound 7-xi, 4-Amino-N-benzyl-1-(hydroxy)-1,2,3,6-tetrahydro-2,6-dioxopyrimidine-5-carboxamide], the inhibition at 10 µM in the data set on HIV-1IIIB (setting [2]) is 99%. The same compound registered a Cell viability % in the data set with CEM-SS cells of 100%. The IC50 at HIV-1 integrase (read-out: INST IC50) is 0.9 ± 0.29 µM.

Regarding `CNc1[nH]c(=O)n(O)c(=O)c1C(=O)NCc1cccc(F)c1` [Compound 7-xii, N-(3-Fluorobenzyl)-1-(hydroxy)-1,2,3,6-tetrahydro-4-(methylamino)-2,6-dioxopyrimidine-5-carboxamide], in the data set on HIV-1IIIB (setting [2]), the inhibition at 10 µM was 100%. Moreover, in the data set on CEM-SS cells, the Cell viability % was determined as 95%. Moreover, the IC50 at HIV-1 integrase (read-out: INST IC50) came out at 0.25 ± 0.048 µM.

For the compound `CNc1[nH]c(=O)n(O)c(=O)c1C(=O)NCc1ccc(F)cc1` [Compound 7-xiii, N-(4-Fluorobenzyl)-1-(hydroxy)-1,2,3,6-tetrahydro-4-(methylamino)-2,6-dioxopyrimidine-5-carboxamide], the inhibition at 10 µM in the data set with HIV-1IIIB (setting [2]) was determined as 100%. Besides, in the data set with CEM-SS cells, the Cell viability % turned out to be 89%. Further, on HIV-1 integrase (read-out: INST IC50), the IC50 was 0.11 ± 0.021 µM.

In the case of `CNc1[nH]c(=O)n(O)c(=O)c1C(=O)NCc1cccc(Cl)c1F` [Compound 7-xiv, N-(3-Chloro-2-fluorobenzyl)-1-(hydroxy)-1,2,3,6-tetrahydro-4-(methylamino)-2,6-dioxopyrimidine-5-carboxamide], the inhibition at 10 µM with HIV-1IIIB (setting [2]) amounted to 100%. The Cell viability % with CEM-SS cells is recorded as 100%. In addition, the IC50 at HIV-1 integrase (read-out: INST IC50) is 0.11 ± 0.033 µM.

Regarding `CCNc1[nH]c(=O)n(O)c(=O)c1C(=O)NCc1cc(F)cc(F)c1` [Compound 7-xix, N-(3,5-Difluorobenzyl)-1-(hydroxy)-4-(ethylamino)-1,2,3,6-tetrahydro-2,6-dioxopyrimidine-5-carboxamide], the inhibition at 10 µM in the data set on HIV-1IIIB (setting [2]) amounted to 100%. Besides, the Cell viability % in the data set on CEM-SS cells came out at 100%. The IC50 at HIV-1 integrase (read-out: INST IC50) came out at 0.23 ± 0.062 µM.

With `CCCNc1[nH]c(=O)n(O)c(=O)c1C(=O)NCc1cccc(Cl)c1F` [Compound 7-xxviii, N-(3-Chloro-2-fluorobenzyl)-1-(hydroxy)-1,2,3,6-tetrahydro-2,6-dioxo-4-(propylamino)pyrimidine-5-carboxamide], in the data set on HIV-1IIIB (setting [2]), the inhibition at 10 µM worked out at 33%. Further, the Cell viability % in the data set with CEM-SS cells was 48%.

For the compound `CCNc1[nH]c(=O)n(OCc2ccccc2)c(=O)c1C(=O)N(C)Cc1ccc(F)cc1` [Compound 15, 3-(Benzyloxy)-6-(ethylamino)-N-(4-fluorobenzyl)-N-methyl-2,4-dioxo-1,2,3,4-tetrahydropyrimidine-5-carboxamide], at HIV-1 integrase (read-out: INST IC50), the IC50 was found to be 7 ± 3.3 µM.

Consider `O=C(NCc1ccccc1)c1c(O)n(O)c(=O)[nH]c1=O` [Compound 16, N-Benzyl-1,6-dihydroxy-2,4-dioxo-1,2,3,4-tetrahydropyrimidine-5-carboxamide], for which the IC50 at HIV-1 integrase (read-out: INST IC50) is 37 ± 21 µM.

For `O=C(NCc1ccc(F)cc1)c1c2n(c(=O)n(O)c1=O)CCCN2` [Compound 17, N-(4-Fluorobenzyl)-7-(hydroxy)-2,3,4,6,7,8-hexahydro-6,8-dioxo-1H-pyrimido[1,6-a]pyrimidine-9-carboxamide], the IC50 on HIV-1 integrase (read-out: INST IC50) was determined as 0.43 ± 0.13 µM.
